Consider 1 molecule from patent US20240277716A1, “Suppressive T Cell Populations and Methods of Cancer Immunotherapy” (La Jolla Institute for Immunology, priority 2021, published 2024).

The test system of one data set is circulating TREG cells. The data set is described as follows: Phase II trial: circulating TREG cells. Also noted: species or system human. To be noted: in vivo. An excerpt:
Double blind, randomized clinical trial and sample collection. In order to explore the immunomodulatory effects of PI3Kδ inhibition in humans, the inventors conducted a multicenter, placebo-controlled phase II neoadjuvant trial with the PI3Kδi AMG319 in resectable HNSCC, www.clinicaltrialsregister.eu/ctr-search/trial/2014-004388-20/results). All patients have provided written informed consent for participation in the clinical trial. The inventors studied Human Papilloma Virus (HPV)-negative HNSCC, as this cancer type is more prevalent, and because patients with this cancer type have poorer outcomes when compared to HPV-positive HNSCC, likely due to overall lower tumor-infiltrating lymphocyte (TIL) infiltration^31-33. The clinical trial was sponsored by Cancer Research UK Center for Drug Development (CRUKD/15/004) and approved by the Southampton and South West Hampshire Research Ethics Board; the trial EudraCT number is 2014-004388-20. […] The sample size was calculated as follows: in a pilot cohort, the CD8 count in the biopsy taken at diagnosis, and in the resected tissue sample was quantified. […]

The subject of data set [1] is tumor-infiltrating TREG cells and CD8+ T cells in HNSCC tumor tissue. The data set is described as follows: Phase II trial: tumor RNA-seq, sorted CD8+ T cell RNA-seq and FOXP3 immunohistochemistry, pre- vs post-treatment. It is filed as in vivo, human. An excerpt: Double blind, randomized clinical trial and sample collection. In order to explore the immunomodulatory effects of PI3Kδ inhibition in humans, the inventors conducted a multicenter, placebo-controlled phase II neoadjuvant trial with the PI3Kδi AMG319 in resectable HNSCC, www.clinicaltrialsregister.eu/ctr-search/trial/2014-004388-20/results). All patients have provided written informed consent for participation in the clinical trial. The inventors studied Human Papilloma Virus (HPV)-negative HNSCC, as this cancer type is more prevalent, and because patients with this cancer type have poorer outcomes when compared to HPV-positive HNSCC, likely due to overall lower tumor-infiltrating lymphocyte (TIL) infiltration^31-33. The clinical trial was sponsored by Cancer Research UK Center for Drug Development (CRUKD/15/004) and approved by the Southampton and South West Hampshire Research Ethics Board; the trial EudraCT number is 2014-004388-20. Detailed information about the trial design, randomization procedure, protocol amendments, recruitment data, patient characteristics and adverse events are deposited at www.clinicaltrialsregister.eu/ctr-search/trial/2014-004388-20/results #morelnformationSection and found in the CONSORT checklist. Patients were recruited after initial diagnosis and before definitive surgical treatment; drug treatment or placebo was given for up to 24 or 28 days respectively, prior to resection of tumor. […] The inventors reasoned that high-grade irAEs were unlikely to occur during the shorter treatment duration in the neoadjuvant setting, and therefore selected 400 mg/day as the starting dose. The intended time from initiating treatment with AMG319 or placebo to surgical resection of tumor was up to 4 weeks, with weekly blood draws. The full evaluation of radiological measurements has previously been reported at https://www.clinicaltrialsregister.eu/ctr-search/trial/2014-004388-20/results to the EU Clinical Trials Register in compliance with regulatory requirements. Primary endpoints were safety and assessment of CD8^+ immune infiltrates, secondary endpoints tumor responses and AMG319 pharmacokinetic evaluation (https://www.clinicaltrialsregister.eu/ctr-search/trial/2014-004388-20/results#endPointsSection). The sample size was calculated as follows: in a pilot cohort, the CD8 count in the biopsy taken at diagnosis, and in the resected tissue sample was quantified. The mean value at diagnosis was 25 cells/high power filed (hpf), and this remained almost the same in the resected sample (26 cells/hpf). […] To detect a standardized difference of 0.5 with 80% power and one-sided test of statistical significance of 20%, 36 patients were randomized to AMG319 and 18 to placebo (54 in total). Randomization was at the level of the individual patient, using block randomization with randomly varying block sizes. During the course of the clinical trial the randomization list was held by the unblinded Trial Statistician and within the IWRS. Patients and care providers were blinded to the treatment allocation, and all immunological evaluations were completed by a pathologist and researchers who were blinded to the patient allocation to treatment arms. […] Patients were eligible if they were >18 years, with histologically proven HNSCC for whom surgery was the primary treatment option, with laboratory results within specified ranges. […]

The test system of data set [2] is patients with resectable head and neck squamous cell carcinoma (HNSCC). It is filed as in vivo, human. An excerpt:
PI3Kδ inhibition causes irAEs. To evaluate the potential for PI3Kδ inhibitors as immunotherapeutic agents in human solid cancers, the inventors administered the PI3Kδi AMG319 to treatment-naive patients with resectable head and neck squamous cell carcinoma (HNSCC) in a neoadjuvant, double-blind, placebo-controlled randomized phase II trial. The inventors measured target inhibition (pAKT levels in B cells and drug levels to verify drug administration. Thirty-three patients were randomized in a 2:1 ratio (AMG319:Placebo) to the trial and 30 patients received at least one dose of AMG319 or placebo. Fifteen patients received 400 mg daily of AMG319 (range of 7-24 days per patient). Unexpectedly, at the 400 mg dose, 9/15 patients experienced irAEs that lead to withdrawal of treatment. After a formal safety review, 6 additional patients were recruited and treated at a reduced dose of 300 mg per day. Again, 3/6 patients had irAEs that led to discontinuation of treatment. One patient experienced grade 4 colitis after completion of 24 daily doses of AMG319 and eventually required colectomy (FIG. 4A). The most prevalent irAEs were skin rashes (29%; 25% observed in the treatment group and 4% in placebo group), diarrhea (29%; 28% in observed treatment group and 1% in placebo group) and transaminitis (14% all in the treatment group), consistent with a treatment-mediated loss of TREG cells or TREG cell functionality in multiple tissues causing immunopathology.
Double blind, randomized clinical trial and sample collection. In order to explore the immunomodulatory effects of PI3Kδ inhibition in humans, the inventors conducted a multicenter, placebo-controlled phase II neoadjuvant trial with the PI3Kδi AMG319 in resectable HNSCC, www.clinicaltrialsregister.eu/ctr-search/trial/2014-004388-20/results). All patients have provided written informed consent for participation in the clinical trial. The inventors studied Human Papilloma Virus (HPV)-negative HNSCC, as this cancer type is more prevalent, and because patients with this cancer type have poorer outcomes when compared to HPV-positive HNSCC, likely due to overall lower tumor-infiltrating lymphocyte (TIL) infiltration^31-33. The clinical trial was sponsored by Cancer Research UK Center for Drug Development (CRUKD/15/004) and approved by the Southampton and South West Hampshire Research Ethics Board; the trial EudraCT number is 2014-004388-20. Detailed information about the trial design, randomization procedure, protocol amendments, recruitment data, patient characteristics and adverse events are deposited at www.clinicaltrialsregister.eu/ctr-search/trial/2014-004388-20/results #morelnformationSection and found in the CONSORT checklist. Patients were recruited after initial diagnosis and before definitive surgical treatment; drug treatment or placebo was given for up to 24 or 28 days respectively, prior to resection of tumor. […] The inventors reasoned that high-grade irAEs were unlikely to occur during the shorter treatment duration in the neoadjuvant setting, and therefore selected 400 mg/day as the starting dose. The intended time from initiating treatment with AMG319 or placebo to surgical resection of tumor was up to 4 weeks, with weekly blood draws. The full evaluation of radiological measurements has previously been reported at https://www.clinicaltrialsregister.eu/ctr-search/trial/2014-004388-20/results to the EU Clinical Trials Register in compliance with regulatory requirements. Primary endpoints were safety and assessment of CD8^+ immune infiltrates, secondary endpoints tumor responses and AMG319 pharmacokinetic evaluation (https://www.clinicaltrialsregister.eu/ctr-search/trial/2014-004388-20/results#endPointsSection). The sample size was calculated as follows: in a pilot cohort, the CD8 count in the biopsy taken at diagnosis, and in the resected tissue sample was quantified. […]

The subject of data set [3] is heavily-pretreated patients with either CLL or non-Hodgkin lymphoma. To be noted: cited from earlier work.

`C[C@H](Nc1ncnc2[nH]cnc12)c1cc2ccc(F)cc2nc1-c1ccccn1` [AMG319]: in the data set on circulating TREG cells, the “activated circulating TREG cells” value is given as “significant increase”. Also, the “expression of IFNG, GZMB and PRF1 in sorted tumor-infiltrating CD8+ T cells” value in data set [1] (post-treatment samples, bulk RNA-seq) is given as “higher expression”. For the same molecule, the “differentially expressed genes, sorted CD8+ T cells” value in data set [1] (post-treatment vs remaining samples) was 455 genes. Further, in data set [1] (pre- vs post-treatment), the “FOXP3 transcript levels in the tumor samples” value is reported as “significant reduction”. The “differentially-expressed genes, whole tumor RNA-seq” value in data set [1] (pre- vs post-treatment tumor samples) came to 93 DEGs. Moreover, in data set [1] (short interval between stopping treatment and assessment), the “intratumoral TREG cells (FOXP3+ cells, immunohistochemistry)” value is “significantly reduced”. In data set [2] (23 evaluable patients, AMG319 vs placebo), the “difference in measured tumor volumes between the study arms” value is on record as “did not observe any significant differences”. Moreover, in data set [2] (AMG319-treated, all also grade 3/4 irAEs), the “patients with partial responses (PR)” value was “Two”. The “patients with complete pathological response” value in data set [2] (AMG319-treated, also grade 3/4 irAEs) is reported as “one”. Also, in data set [2] (human, in vivo), the “diarrhea observed in the treatment group” value is reported as 28%, the “median time to onset of irAEs” value was 9 days, the “skin rashes observed in the treatment group” value was determined as 25% and the transaminitis is 14%. Further, the “patients with grade 4 colitis, eventually required colectomy” value in data set [2] (in vivo) is recorded as “One”. For the same molecule, in data set [3] (daily dosing with 400 mg), the nodal regression is listed as more than 50% and the “target inhibition (BCR-induced pAKT in ex vivo IgD-stimulated CLL samples)” value is recorded as “near-complete target inhibition”. The maximally-tolerated dose result in data set [3] (doses of up to 400 mg explored) is listed as “without reaching a maximally-tolerated dose”. The “mean half-life in plasma” value in data set [3] (human plasma) is 3.8 to 6.6 h. For the same molecule, the “occurrence of irAE at grade 3 or above (CTC)” value in data set [3] (in vivo) was “after days 40 and 60”.
